US5585095A, “Method to enhance thrombomodulin APC generation using cationic proteins” (Regents of the University of Minnesota, priority 1993, dated 1996)

Assays:
full-length rabbit TM = target: T1, full-length rabbit TM (Oryctolagus cuniculus, UniProt Q8HZ48); assay: APC generation by soluble full-length rabbit TM with thrombin and protein C (chromogenic S-2366); type: biochemical; conditions: 2 nM TM, 500 nM protein C, 1 mM Ca2+, 2 nM THR, 10 min, 37° C., over baseline
T1 construct: full-length rabbit TM purified from lungs; from tissue; host or cells: rabbit lung (purified after N. L. Esmon et al. 1982)
Description: For each type of cationic protein or modification thereof to be tested, 2 nM TM (full-length rabbit TM) and 500 nM protein C are incubated together in the presence of 1 mM (i.e., physiologic) Ca^2+ with either no cationic protein (for a baseline determination) or […] of the cationic protein. The generation of APC is initiated by the addition of 2 nM THR in 50 mM of the buffer Tris, 100 mM NaCl, pH 7.4 at 37° C. The reaction is allowed to proceed for 10 minutes, then quenched by the addition of AT III (antithrombin obtained from Enzyme Research Laboratories, Inc., South Bend, Ind.) and EDTA. […] A cationic protein that can be used in the methods and compositions of the present invention include those that show at least a two-fold increase in APC production, relative to a baseline of APC generated without the cationic protein.
Dose-response studies were then performed with increasing amounts of PF4 to assay its effect upon the ability of three TM preps to generate APC from protein C. […] See, C.
For each type of TM, 2 nM TM and 500 nM protein C were incubated together in the presence of 1 mM (i.e., physiologic) Ca^2+ with or without PF4, and the generation of APC initiated by the addition of 2 nM THR in 50 mM Tris, 100 mM NaCl, pH 7.4 at 37° C. The reaction was allowed to proceed for 10 minutes, then quenched by the addition of AT III (obtained from Enzyme Research Laboratories, Inc., South Bend, Ind.) and EDTA. […] Negative controls of plastic wells treated in a parallel fashion except that TM was omitted. Values obtained from these controls were then subtracted from the rates measured for wells containing monolayers.

GAG- TM = assay: APC generation by recombinant GAG- TM with thrombin and protein C (chromogenic S-2366); type: biochemical, human
Description: Human PF4 was purified from outdated platelets by THR stimulation, NH4 SO4 precipitation, heparin affinity chromatography, and Scphadex G-100 chromatography using a technique described in T. F. Deuel et al., Proc. Natl. Acad. Sci. USA, 74, 2256-2258 (1977), which is incorporated herein by reference. Dose-response studies were then performed with increasing amounts of PF4 to assay its effect upon the ability of three TM preps to generate APC from protein C. The three TM preps employed were: a) full-length rabbit TM purified from lungs (see, N. L. Esmon et al., J. Biol. Chem., 257, 859-864 (1982)); and b) two differentially glycated versions of a recombinantly produced polypeptide fragment of human TM encompassing the entire extracellular domain ([amino acids 1-497], which includes the serine 492 glycosylation site) expressed in Chinese Hamster Ovary cells, provided by Berlex Biosciences (Richmond, Calif.). See, C. B. Glaser et al., J. Clin. Invest., 90, 2565-2573 (1992). […]
The reaction was allowed to proceed for 10 minutes, then quenched by the addition of AT III (obtained from Enzyme Research Laboratories, Inc., South Bend, Ind.) and EDTA. APC was quantified spectrophotometrically with the chromogenic substrate S-2366 (obtained from Kabi Vitrum, Franklin, Ohio). […] Values obtained from these controls were then subtracted from the rates measured for wells containing monolayers. […]

GAG+ TM [1] = target: T2, GAG+ TM (Homo sapiens, UniProt P07204); assay: APC generation by recombinant GAG+ TM with thrombin and protein C (chromogenic S-2366); type: biochemical; conditions: for acceleratory effect upon APC generation by thrombomodulin (GAG+ TM): conditions of Example 1, GAG+ TM, FIG. 4
T2 construct: encompassing the entire extracellular domain ([amino acids 1-497], which includes the serine 492 glycosylation site); host or cells: Chinese Hamster Ovary cells
Description: Human PF4 was purified from outdated platelets by THR stimulation, NH4 SO4 precipitation, heparin affinity chromatography, and Scphadex G-100 chromatography using a technique described in T. F. Deuel et al., Proc. Natl. Acad. Sci. USA, 74, 2256-2258 (1977), which is incorporated herein by reference. Dose-response studies were then performed with increasing amounts of PF4 to assay its effect upon the ability of three TM preps to generate APC from protein C. The three TM preps employed were: a) full-length rabbit TM purified from lungs (see, N. L. Esmon et al., J. Biol. Chem., 257, 859-864 (1982)); and b) two differentially glycated versions of a recombinantly produced polypeptide fragment of human TM encompassing the entire extracellular domain ([amino acids 1-497], which includes the serine 492 glycosylation site) expressed in Chinese Hamster Ovary cells, provided by Berlex Biosciences (Richmond, Calif.). See, C. B. Glaser et al., J. Clin. Invest., 90, 2565-2573 (1992). These polypeptides were produced in two chromatographically separable forms: the first has an apparent molecular weight of 116 kD and contains a chondroitinase ABC-cleavable GAG moiety (henceforth referred to GAG+ TM); the second is an unglycated version of the same polypeptide with apparent molecular weight of 95 kD, henceforth referred to as GAG- TM.
(§1) For each type of TM, 2 nM TM and 500 nM protein C were incubated together in the presence of 1 mM (i.e., physiologic) Ca^2+ with or without PF4, and the generation of APC initiated by the addition of 2 nM THR in 50 mM Tris, 100 mM NaCl, pH 7.4 at 37° C. The reaction was allowed to proceed for 10 minutes, then quenched by the addition of AT III (obtained from Enzyme Research Laboratories, Inc., South Bend, Ind.) and EDTA. APC was quantified spectrophotometrically with the chromogenic substrate S-2366 (obtained from Kabi Vitrum, Franklin, Ohio). The spectrophotometric analysis involved the conversion of the chromogenic substrate at […] in a 37° C. spectrophotometer cell based on the initial rate of optical density change. Negative controls of plastic wells treated in a parallel fashion except that TM was omitted. Values obtained from these controls were then subtracted from the rates measured for wells containing monolayers.
The conditions used were identical to those listed in Example 1 except GAG+ TM obtained from Berlex Biosciences was used for all experiments.

THR = assay: TM-independent activation of protein C by THR (control); type: biochemical; conditions: controls, not shown
Description: as §1
(§2) PF4 accelerates APC generation by full-length rabbit TM and GAG- TM 4-fold, and that of GAG+ TM 25-fold. GAG+ TM was also accelerated 10-fold by PF4 in the presence of 15% defibrinated plasma. […] The increase in APC was not an artifact of PF4 influencing the catalytic activity of APC towards chromogenic substrate.

TM [2] = assay: APC generation in the absence of added THR (control); type: biochemical; conditions: PF4 alone or PF4 together with TM
Description: as §1, with “The” for “For each type of TM, 2 nM TM and 500 nM protein C were incubated together in the presence of 1 mM (i.e., physiologic) Ca^2+ with or without PF4, and the generation of APC initiated by the addition of 2 nM THR in 50 mM Tris, 100 mM NaCl, pH 7.4 at 37° C. The”
as §2

[3] = tested on: cell-surface TM on porcine aortic endothelial cell (PAEC) monolayers; assay: APC generation by porcine aortic endothelial cell monolayers; type: cell-based
Description: In these experiments, 1 cm^2 monolayers of endothelial cells were overlaid with PBS buffer containing 500 nM PC and 1 mM Ca^2+, then further supplemented with either PBS or PBS with 15% (v/v) bovine serum. To these wells were then added increasing concentrations of purified native PF4. The resultant mixture was incubated for 20 minutes after which either 2 nM (PBS) or 10 nM THR (15% serum) was added and the generation of APC allowed to proceed for 45 minutes prior to quenching with addition of AT III and EDTA.

APC = assay: Detection of known amounts of APC in 15% serum by chromogenic substrate (control); type: biochemical; conditions: known amounts of APC added to 15% serum, not shown
Description: In addition to stimulating APC generation by soluble forms of TM in buffers, PF4 also stimulates APC generation of cell-surface TM on porcine aortic endothelial cell (PAEC) monolayers in plasmatic conditions. In these experiments, 1 cm^2 monolayers of endothelial cells were overlaid with PBS buffer containing 500 nM PC and 1 mM Ca^2+, then further supplemented with either PBS or PBS with 15% (v/v) bovine serum. To these wells were then added increasing concentrations of purified native PF4. The resultant mixture was incubated for 20 minutes after which either 2 nM (PBS) or 10 nM THR (15% serum) was added and the generation of APC allowed to proceed for 45 minutes prior to quenching with addition of AT III and EDTA. Supernatants were then centrifuged to remove cellular debris and APC generation quantified using chromogenic substrate S-2366 as described above. In the absence of added serum, there is a 2 1/2-fold increase in APC generation with an optimum at 3.3 μg/ml of PF4, but decreasing APC generation with higher concentrations. In contrast, in the presence of 15% serum, the baseline APC generation is much lower despite the presence of higher concentrations of THR. There is a PF4 dose-dependent increase in APC generation with an optimum at 33 μg/ml PF4, at which point APC generation is 10-fold higher than baseline. […]

TM [4] = assay: APC formation with exogenous TM in combination with PF4; conditions: pharmacological (exogenous) TM in combination with purified naturally occurring or recombinant PF4
Source text: The particularly preferred compositions of the present invention include those containing purified PF4, or a modification thereof, and a thrombomodulin preparation, such as purified soluble GAG+ thrombomodulin. Such compositions display particularly high levels of APC formation, and thus particularly effective levels of anticoagulation. For example, with the administration of a pharmacological form of TM, i.e., an exogenous form, in combination with purified naturally occurring or recombinant PF4, there is a 3-8 fold increase in the amount of APC formed, as compared to the administration of PF4 alone using endogenous forms of TM. This is particularly advantageous because TM and PF4, individually or together, have a higher therapeutic index than does heparin, which is currently used for anticoagulation therapy.

GAG+ TM [5] = target: T2, GAG+ TM; assay: APC generation by recombinant GAG+ TM with thrombin and protein C (chromogenic S-2366); type: biochemical
[6] = tested on: purified, soluble rabbit TM; conditions: polyanions added to MBP-inhibited TM; cited from earlier work
[7] = 2 nM TM, 500 nM protein C, 1 mM Ca2+, 2 nM THR, 10 min, 37° C., over baseline

T2 sequence (P07204 19-515): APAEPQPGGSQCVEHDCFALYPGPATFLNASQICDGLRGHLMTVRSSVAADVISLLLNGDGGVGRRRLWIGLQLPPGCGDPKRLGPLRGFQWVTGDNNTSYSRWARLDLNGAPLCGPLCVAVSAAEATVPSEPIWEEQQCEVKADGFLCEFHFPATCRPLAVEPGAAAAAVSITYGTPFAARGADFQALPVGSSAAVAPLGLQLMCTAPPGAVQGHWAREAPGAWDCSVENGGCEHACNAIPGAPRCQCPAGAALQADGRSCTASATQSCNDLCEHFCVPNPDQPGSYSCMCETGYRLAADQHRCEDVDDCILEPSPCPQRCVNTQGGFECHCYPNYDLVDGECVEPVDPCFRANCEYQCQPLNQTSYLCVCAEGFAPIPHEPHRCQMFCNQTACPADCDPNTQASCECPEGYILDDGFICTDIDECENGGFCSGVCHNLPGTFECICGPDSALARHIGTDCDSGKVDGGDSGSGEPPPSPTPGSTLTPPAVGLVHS
T1 sequence (Q8HZ48 19-580): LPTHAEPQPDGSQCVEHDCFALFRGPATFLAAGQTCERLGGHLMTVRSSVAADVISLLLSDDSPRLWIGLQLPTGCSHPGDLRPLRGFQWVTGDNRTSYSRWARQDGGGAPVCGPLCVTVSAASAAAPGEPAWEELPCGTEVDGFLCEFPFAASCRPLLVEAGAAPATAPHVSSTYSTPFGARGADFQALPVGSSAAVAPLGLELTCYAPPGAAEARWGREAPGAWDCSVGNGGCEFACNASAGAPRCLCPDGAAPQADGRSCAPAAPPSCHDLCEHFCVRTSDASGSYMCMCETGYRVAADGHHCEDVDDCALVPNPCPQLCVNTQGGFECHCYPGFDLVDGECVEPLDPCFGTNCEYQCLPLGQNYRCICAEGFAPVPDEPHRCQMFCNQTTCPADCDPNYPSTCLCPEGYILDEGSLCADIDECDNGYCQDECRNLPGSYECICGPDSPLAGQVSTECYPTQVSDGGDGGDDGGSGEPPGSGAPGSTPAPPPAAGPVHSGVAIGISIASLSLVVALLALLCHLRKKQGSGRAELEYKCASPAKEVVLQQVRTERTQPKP

## PF4: moderately cationic and hydrophobic major protein constituent of platelet α-granules, 7.8 kD; human PF4 purified from outdated platelets
full-length rabbit TM
  fold acceleration of APC generation by full-length rabbit TM: 4 fold
GAG- TM; [7]
  fold acceleration of APC generation by GAG- TM: 4 fold
GAG- TM; several Ca2+ concentrations, FIG. 2
  effect of PF4 on Ca2+ dependence of APC generation by GAG- variant: increases APC generation at all Ca^2+ concentrations but does not shift the overall shape of the curve
GAG+ TM [1]; [7]
  fold acceleration of APC generation by GAG+ TM: 25 fold
GAG+ TM [1]; fold-over-baseline comparison
  acceleration of GAG+ TM by PF4 relative to full-length rabbit TM and GAG- TM (fold-over-baseline basis): more than six times as much
GAG+ TM [1]; in the presence of 15% defibrinated plasma
  fold acceleration of APC generation by GAG+ TM in plasma: 10 fold
THR
  effect upon TM-independent activation of protein C by THR: essentially no effect
TM [2]
  APC generation in the absence of added THR: neither PF4 alone nor PF4 together with TM generated APC
[3]; 15% (v/v) bovine serum, 10 nM THR
  PF4 concentration optimum for APC generation, PAEC, 15% serum: 33 µg/mL
[3]; 15% (v/v) bovine serum, 10 nM THR, at 33 μg/ml PF4
  fold increase in APC generation over baseline, PAEC, 15% serum: 10 fold
[3]; PBS, absence of added serum, 2 nM THR
  PF4 concentration optimum for APC generation, PAEC, no serum: 3.3 µg/mL
APC
  effect on APC detection by chromogenic substrate: did not diminish or augment APC detection
TM [4]
  fold increase in the amount of APC formed, exogenous TM plus PF4 versus PF4 alone using endogenous TM: 3-8 fold
GAG+ TM [5]; 0 calcium, buffers with 1 mM EDTA, GAG+ and GAG- forms of TM
  APC generation in the absence of Ca2+: allows both the GAG+ and GAG- forms of TM to generate APC even in the absence of Ca^2+
GAG+ TM [5]; PF4 added, FIG. 2
  Ca2+ optimum of APC generation by GAG+ TM with PF4 added: 0.5 mM

## chondroitin sulfate A
GAG+ TM [1]
  acceleratory effect upon APC generation by thrombomodulin (GAG+ TM): no such effect

## chondroitin sulfate E
GAG+ TM [1]
  acceleratory effect upon APC generation by thrombomodulin (GAG+ TM): no such effect
[6]
  reversal of MBP inhibition of APC generation: reversed

## heparin
GAG+ TM [1]
  acceleratory effect upon APC generation by thrombomodulin (GAG+ TM): no such effect
[6]
  reversal of MBP inhibition of APC generation: reversed

## poly-L-lysine
full-length rabbit TM
  fold acceleration of APC generation by full-length rabbit TM: 2.5 fold
GAG+ TM [1]
  acceleratory effect upon APC generation by thrombomodulin (GAG+ TM): can be replicated

## protamine sulfate
full-length rabbit TM
  fold acceleration of APC generation by full-length rabbit TM: 2.5 fold
GAG+ TM [1]
  acceleratory effect upon APC generation by thrombomodulin (GAG+ TM): can be replicated

## thrombospondin: anionic protein; major constituent of platelet α-granules
GAG+ TM [1]
  acceleratory effect upon APC generation by thrombomodulin (GAG+ TM): no such effect
